Results published in patent EP4741392A1, “1H-PYRAZOLO[4,3-C]PYRIDINE COMPOUND, AND COMPOSITION THEREOF AND USE THEREOF” (Shenzhen TargetRx Co., Ltd., priority 2023, dated 2025).

Legend:
Assay type in all cases: cell-based
[1] = test system: Ba/F3-ETV6-BTK-T474I cells; experiment: Viability assay of Ba/F3-ETV6-BTK-T474I cells (CTG); conditions: Mus musculus, BaF3, cell viability, 72 hours
Experimental: The in vitro antiproliferative activity of the compounds of the present disclosure against Ba/F3-ETV6-BTK-T474I cells was assayed using CTG luminescent cell viability assay. The specific assay methods were as follows: • a) Ba/F3-ETV6-BTK-T474I cells were cultured at 37 °C and 5% CO2 in complete medium [RPMI 1640 (supplier Gibco, product number 22400-089) + 10% FBS (supplier Gibco, product number 10091-148)]. • b) Cells in the logarithmic growth phase were harvested, and cell counting was performed using a […]. Trypan blue exclusion test was used to determine the cell viability, ensuring that the cell viability was above 90%. • c) Cell density was adjusted using complete culture medium. Then, the cells were inoculated at 90 µL, a total of 3000 cells per well in a 96-well cell culture plate (supplier: Shanghai Jing An Biotechnology Co., Ltd., product number J09601). • d) The cells in the 96-well plate were cultured at 37 °C and 5% CO2. • e) A 10-fold drug solution was prepared, and then 10 µL of each serially diluted compound was transferred to the corresponding assay wells of the 96-well cell plate so that the final assay concentration was 1000 nM, with 9 concentrations, 3.16-fold dilutions, and triplicates for each drug concentration. • f) The cells in the 96-well plate with the drug added were cultured at 37 °C and 5% CO2 for another 72 hours. Then, CTG analysis was performed. • g) The CTG reagent was melted, and the cell plate was equilibrated at room temperature for 30 minutes. • h) An equal volume of CTG solution was added to each well. • i) The plate was shaken on an orbital shaker for 5 minutes to lyse the cells. • j) The cell plate was placed at room temperature for 20 minutes to stabilize the luminescent signal. • k) The luminescent signal values were read and the data were collected.
The data were analyzed using GraphPad Prism 7.0 software. Nonlinear S-curve regression was used to fit the data to give a dose-response curve, from which the IC50 values were calculated. [formula]

TMD8 cells = experiment: Viability assay of TMD8 cells (CTG); conditions: Homo sapiens, cell viability, 120 hours
Experimental: (§1) The in vitro antiproliferative activity of the compounds of the present disclosure against TMD8 cells and OCI-LY10 cells was assayed using CTG (Cell Titer-Glo) luminescent cell viability assay. The specific assay methods were as follows. • a) TMD8 cells were cultured at 37 °C and 5% CO2 in complete medium [RPMI 1640 (supplier Gibco, product number 22400-089) + 10% FBS (supplier Gibco, product number 10091-148) + 1% P/S (supplier Hyclone, product number SV30010)]; OCI-LY10 cells were cultured at 37 °C and 5% CO2 in medium [IMDM (supplier Gibco, product number 31980-030) + 20% FBS (supplier Gibco, product number 10091-148) + 1% P/S (supplier Hyclone, product number SV30010) + 0.05 mM 2-Mercaptoethanol (supplier Sigma, product number M6250)]. • b) Cells in the logarithmic growth phase were harvested, and the total cell count and viable cell count were determined using a Vi-cell cell counter (supplier: BECKMAN COULTER, product number 2785198). • c) Cell density was adjusted using complete culture medium. Then, the cells were inoculated at 1500 cells per well in a 384-well cell culture plate (supplier Greiner, product number 781090). • d) The cells in the 384-well plate were cultured at 37 °C and 5% CO2 overnight. • e) A 10-fold drug solution was prepared, and then the serially diluted compound was transferred to the corresponding assay wells of the 384-well cell plate so that the final assay concentration was 1000 nM, with 9 concentrations, 3-fold dilutions, and triplicates for each drug concentration. • f) The cells in the 384-well plate with the drug added were cultured at 37 °C and 5% CO2 for another 120 hours. • g) The cells were removed from the incubator, and allowed to equilibrate at room temperature for 30 minutes. The cell state and compound solubility were observed under a microscope. • h) An equal volume of CellTiterGlo solution (supplier Promega, product number G7573) was added to each well, and the plate was incubated at room temperature for 30 minutes. • i) Then, the luminescent signal value was detected on an EnVision instrument (supplier PerkinElmer, product number 2441715).
(§2) The data were analyzed using XL-fit software (supplier: ID Business Solutions Ltd., software version: XL fit 5.5.0.5). Nonlinear regression was performed using X=Log(X), and the X values were transformed using a four-parameter Logistic model 205, from which the IC50 values were calculated. Inhibition rate % = (Max−samplevalue)/Max*100.(Max:DMSOnegativecontrol) [formula]

OCI-LY10 cells = experiment: Viability assay of OCI-LY10 cells (CTG); conditions: Homo sapiens, OCI-Ly10, 120 h, cell viability, read-out: OCl-Ly10
Experimental: as §1, §2

| SMILES | IC50 [1] | IC50 (TMD8 cells) | IC50 (OCI-LY10 cells) |
| --- | --- | --- | --- |
| COCCOc1ccc(-c2cnc(-c3ccc(CNC(=O)c4cc(F)ccc4OC)cc3)c3c(N)n[nH]c23)nc1 [Example 59, N-(4-(3-amino-7-(5-(2-methoxyethoxy)pyridin-2-yl)-1H-pyrazolo[4,3-c]pyridin-4-yl)benzyl)-5-fluoro-2-methoxybenzamide] | 5 to 10 nM | ≤ 5 nM | ≤ 5 nM |
| CCN1CCn2nc(-c3cnc(-c4ccc(CNC(=O)c5cc(F)ccc5OC)cc4)c4c(N)n[nH]c34)cc2C1 [Example 72, N-(4-(3-amino-7-(5-ethyl-4,5,6,7-tetrahydropyrazolo[1,5-a]pyrazin-2-yl)-1H-pyrazolo[4,3-c]pyridin-4-yl)benzyl)-5-fluoro-2-methoxybenzamide] | 5 to 10 nM | ≤ 5 nM | ≤ 5 nM |
| COc1ccc(F)cc1C(=O)NCc1ccc(-c2ncc(-c3ccc(C)cn3)c3[nH]nc(N)c23)cc1 [Example 37, N-(4-(3-amino-7-(5-methylpyridin-2-yl)-1H-pyrazolo[4,3-c]pyridin-4-yl)benzyl)-5-fluoro-2-methoxybenzamide] | 10 to 50 nM | ≤ 5 nM | ≤ 5 nM |
